Source: publication PMC12535076, “Neurotherapeutic effects of Vutiglabridin as a Paraoxonase-2 modulator in preclinical models of Parkinson’s disease” (Molecular Neurodegeneration, 2025)

Key:
[1] = system: PON2-KD and wild-type C57BL/6 mice; experiment: MPTP model in wild-type and PON2-knockdown mice; type: in vivo, mouse
Description: Animals were allowed at least 1 week of acclimatization before being subjected to the study and were housed in a regulated environment with a 12-h/12-h light/dark cycle. Food and water were provided ad libitum. The animal experiment was carried out in accordance with the National Institutes of Health Guide for the Care and Use of Laboratory Animals (NIH Publications No. 80–23; revised 1996). All procedures for handling mice were carried out in accordance with “Principles of Laboratory Animal Care” and the Animal Care and Use guidelines of Kyung Hee University, Seoul, Korea (KHSASP-20-163).
MPTP was dissolved in distilled water and injected intraperitoneally for five days from day 10 of the 21-day experiment period. Vuti or rasagiline was administered via oral gavage for 21 days. Vehicles for both Vuti and MPTP (distilled water) were administered to all mice. Mice were randomly divided for all studies. For the first set of studies shown in Fig. 3, each group consisted of 5 animals.
To determine forelimb and hindlimb motor coordination and balance, we performed the rotarod test as described previously. Also, the pole test was performed to measure bradykinesia. […] On day 20, the time spent on the rotating bar at 20 rpm, which was defined as the latent period, was recorded. Performance was recorded as 300 s if the latent period exceeded 300 s. […] The time to land down and place four fee on the floor was recorded as the time for locomotion activity (T-LA). […]
Free-floating brain sections were processed with the avidin-biotin peroxidase complex (ABC) complex (Vector Laboratories, Burlingame, CA, USA) method. […] The immunoperoxidase signals of TH was detected by incubating sections with 0.5 mg/ml 3,3′-diaminobenzidine (Sigma, St. Louis, MO, USA) in 0.1 M PB containing 0.003% H2O2. […] TH-positivity in the ST was measured by the optical density of TH-positive fibers at x40 magnification using ImageJ software (National Institutes of Health, Bethesda, MD, USA). […] (5 sections/series) were counted at x100 magnification as previously described. […]

[2] = molecular target: T1, PON2 (Mus musculus, UniProt Q62086); experiment: PON2 activity assay (esterase and lactonase) in A53T-infected astrocytes; type: cell-based; settings: primary cultured astrocytes infected with A53T virus, Vuti 24 h
T1 construct: we infected a primary cultured cortical astrocytes with AAV-CMV-αsyn-A53T virus; endogenous in cells; host or cells: primary cultured cortical astrocytes infected with AAV-CMV-αsyn-A53T
Description: To assess PON2 activity following Vuti treatment, we infected a primary cultured cortical astrocytes with AAV-CMV-αsyn-A53T virus. Five days post-infection, we treated the cells with Vuti for 24 h and conducted esterase and lactonase assays. For the esterase activity evaluation, reactions were initiated by adding 1 mM p-nitrophenyl acetate (pNPA) to the PON2 activity assay buffer. Enzymatic hydrolysis was monitored by measuring the absorbance at 412 nm. For lactonase activity, the reactions were initiated with 1 mM thio-butyrolactone (TBBL) and 1 mM 5,5’-dithiobis(2-nitrobenzoic acid) (DTNB) in the PON2 activity assay buffer, with absorbance measured at 420 nm to monitor enzymatic hydrolysis.

[3] = system: panel of a total of 225 mammalian proteins; experiment: In vitro safety (off-target) screening panel; settings: 225 targets: ion channels, GPCR, nuclear receptors, kinases, enzymes, transporters; data not shown
Description: The overall safety of Vuti has been already established through human phase 1 clinical trial (NCT04732988, NCT04733001, NCT04703764). However, for its potential repositioning as a central nervous system (CNS)-targeting drug candidate, we performed a comprehensive neurotoxicity assessment of Vuti through in vitro safety screening. Interactions of Vuti were tested against an extensive panel of a total of 225 mammalian proteins, including ion channels, G-protein coupled receptors (GPCR), nuclear receptors, kinases, non-kinase enzymes, and drug transporters, cardiac function, and drug-drug interactions. Additionally, these also examined whether Vuti interacted with reported direct targets of glabridin [37], such as estrogen receptor, peroxisome proliferator-activated receptor gamma (PPARγ), and cyclooxygenase 2 (COX-2).

**Q.** Which “neuroprotective effects in PON2-KD mice” value ([1]; PON2-KD mice, MPTP, Vuti 50 mg/kg oral for three weeks) does the source give for `CCOc1ccc(C2COc3c(ccc4c3CCC(C)(C)O4)C2)c(O)c1` (centres unmarked) [Vuti, Vutiglabridin] here?
**A.** absent

**Q.** What about the “motor behavior, dopaminergic neuronal cell count and fiber density without MPTP” value ([1]; non-MPTP-injected wild-type mice, 50 mg/kg Vuti, vs vehicle-only) of the same compound?
**A.** no changes

**Q.** And the “MPTP-induced damage to motor behaviors and dopaminergic neurons in wild-type mice” value ([1]; wild-type mice, MPTP, Vuti 50 mg/kg for three weeks)?
**A.** significantly attenuated

**Q.** And the “PON2 esterase and lactonase activities” value [2]?
**A.** increased

**Q.** What about the off-target interactions [3] of the same compound?
**A.** no significant unexpected targets
